Experimental data reported in patent US8871767B2, “2-arylimidazo[1,2-B]pyridazine, 2-phenylimidazo[1,2-A]pyridine, and 2-phenylimidazo[1,2-A]pyrazine derivatives” (Hengrui (USA) Ltd., priority 2010, dated 2014).

What follows are compounds tested on Hedgehog pathway activation (GLi-luciferase reporter) in Shh Light II reporter cells (assay: Hedgehog pathway activation on Shh Light II reporter cells measured by luciferase activity). Conditions: Mus musculus, Shh Light II, hShh activation, read-out: Shh (IC50, inhibition of Hedgehog pathway activation).
Assay type: cell-based
How it was run: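 Shh Light II reporter cells carrying a hedgehog-responsive GLi-luciferase reporter were stimulated either with 500 nM SAG, a direct Smoothened agonist, or with conditioned media containing human Sonic Hedgehog (hShh). Test compounds were evaluated for blocking this pathway activation, quantified by luciferase activity. Cell viability was monitored in parallel with the Celltiter-Blue® assay.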

| SMILES | IC50 |
| --- | --- |
| C#Cc1ccc(-c2cn3nc(-c4ccccc4F)ccc3n2)cc1N [Example 320, 2-ethynyl-5-(6-(2-fluorophenyl)imidazo[1,2-b]pyridazin-2-yl)aniline] | 9260 nM |
| COc1ccc2nc(-c3ccc(C)c(NS(=O)(=O)c4cccc(C=CC(=O)NO)c4)c3)cn2n1 [compound 618] | 9080 nM |
| Cc1ccc(-c2cn3nc(-c4cccc(O)c4C(F)(F)F)ccc3n2)cc1NC(=O)C(C)(C)C [Example 398, N-(5-(6-(3-hydroxy-2-(trifluoromethyl)phenyl)imidazo[1,2-b]pyridazin-2-yl)-2-methylphenyl)pivalamide] | 681 nM |
| Cc1ccc(-c2cn3nc(-c4cccnc4C(F)(F)F)ccc3n2)cc1NC(=O)CCCCC(=O)NO [Example 440, N^1-hydroxy-N^6-(2-methyl-5-(6-(2-(trifluoromethyl)pyridin-3-yl)imidazo[1,2-b]pyridazin-2-yl)phenyl)adipamide] | 4060 nM |
| Cc1ccc(-c2cn3nc(-c4cccnc4C(F)(F)F)ccc3n2)cc1C(=O)O [Example 481, 2-methyl-5-(6-(2-(trifluoromethyl)pyridin-3-yl)imidazo[1,2-b]pyridazin-2-yl)benzoic acid] | > 10000 nM |
| COC(=O)CN(C(=O)C(C)(C)C)c1cc(-c2cn3nc(-c4cccnc4C(F)(F)F)ccc3n2)ccc1C [compound 515, methyl 2-(N-(2-methyl-5-(6-(2-(trifluoromethyl)pyridin-3-yl)imidazo[1,2-b]pyridazin-2-yl)phenyl)pivalamido)acetate] | 911 nM |
| Cc1ccc(-c2cn3nc(-c4ccccc4O)ccc3n2)cc1NC(=O)C(C)(C)C [Example 276, N-(5-(6-(2-hydroxyphenyl)imidazo[1,2-b]pyridazin-2-yl)-2-methylphenyl)pivalamide] | 1960 nM |
| CCN1CCN(c2ccc3nc(-c4ccc(C(F)(F)F)c(NC(=O)C(C)(C)C)c4)cn3n2)CC1 [Example 317, N-(5-(6-(4-ethylpiperazin-1-yl)imidazo[1,2-b]pyridazin-2-yl)-2-(trifluoromethyl)phenyl)pivalamide] | 1250 nM |
| COC(=O)CCCCCCC(=O)Nc1cc(-c2cn3nc(-c4cccnc4C(F)(F)F)ccc3n2)ccc1C [Example 420, methyl 8-(2-methyl-5-(6-(2-(trifluoromethyl)pyridin-3-yl)imidazo[1,2-b]pyridazin-2-yl)phenylamino)-8-oxooctanoate] | 1370 nM |
| Cc1ccc(-c2cn3nc(N4CCC(NCCCCCC(=O)NO)C4)ccc3n2)cc1NC(=O)C(C)(C)C (stereo not shown) [Example 418, N-hydroxy-6-(1-(2-(4-methyl-3-pivalamidophenyl)imidazo[1,2-b]pyridazin-6-yl)pyrrolidin-3-ylamino)hexanamide] | 1390 nM |
| COC(=O)CCCCCCN(C(=O)C(C)(C)C)c1cc(-c2cn3nc(-c4cccnc4C(F)(F)F)ccc3n2)ccc1C [compound 516, methyl 7-(N-(2-methyl-5-(6-(2-(trifluoromethyl)pyridin-3-yl)imidazo[1,2-b]pyridazin-2-yl)phenyl)pivalamido)heptanoate] | 1710 nM |
| Cc1ccc(-c2cn3nc(-c4ccc(O)cc4F)ccc3n2)cc1NC(=O)C(C)(C)C [compound 547] | 793 nM |
| CC(C)(C)C(=O)Nc1cc(-c2cn3nc(N4CC(F)(F)C4)ccc3n2)ccc1C(F)(F)F [Example 315, N-(5-(6-(3,3-difluoroazetidin-1-yl)imidazo[1,2-b]pyridazin-2-yl)-2-(trifluoromethyl)phenyl)pivalamide] | 807 nM |
| Cc1ccc(-c2cn3nc(-c4cccnc4C(F)(F)F)ccc3n2)cc1-c1cccc(C(F)(F)F)n1 [Example 441, 2-(4-methyl-3-(6-(trifluoromethyl)pyridin-2-yl)phenyl)-6-(2-(trifluoromethyl)pyridin-3-yl)imidazo[1,2-b]pyridazine] | 2560 nM |
| Cc1ccc(-c2cn3nc(-c4ccc(C(=O)NO)cc4)ccc3n2)cc1NC(=O)C(C)(C)C [compound 588] | 1050 nM |
| COc1ccc2nc(-c3ccc(C)c(NC(=O)c4ccc(S(C)(=O)=O)cc4Cl)c3)cn2n1 [Example 95, 2-chloro-N-(5-(6-methoxyimidazo[1,2-b]pyridazin-2-yl)-2-methylphenyl)-4-(methylsulfonyl)benzamide] | 7860 nM |
| CC(C)(C)C(=O)Nc1cc(-c2cn3nc(NC4CCCCC4O)ccc3n2)ccc1C(F)(F)F (stereo not shown) [Example 333, N-(5-(6-(2-hydroxycyclohexylamino)imidazo[1,2-b]pyridazin-2-yl)-2-(trifluoromethyl)phenyl)pivalamide] | 893 nM |
| COC(=O)c1cccc(-c2ccc3nc(-c4ccc(C)c(NC(=O)C(C)(C)C)c4)cn3n2)c1 [compound 583] | 742 nM |
| Cc1ccc(-c2cn3nc(C4=CCCCC4)ccc3n2)cc1NC(=O)C(C)(C)C [Example 443, N-(5-(6-cyclohexenylimidazo[1,2-b]pyridazin-2-yl)-2-methylphenyl)pivalamide] | 1880 nM |
| CCOC(=O)CCCCCCNC1CCN(c2ccc3nc(-c4ccc(C)c(NC(=O)C(C)(C)C)c4)cn3n2)C1 (stereo not shown) [Example 415, ethyl 7-(1-(2-(4-methyl-3-pivalamidophenyl)imidazo[1,2-b]pyridazin-6-yl)pyrrolidin-3-ylamino)heptanoate] | 1760 nM |
| CCOC(=O)COc1cc(-c2ccc3nc(-c4ccc(C)c(NC(=O)C(C)(C)C)c4)cn3n2)cc(C(F)(F)F)n1 [Example 475, ethyl 2-(4-(2-(4-methyl-3-pivalamidophenyl)imidazo[1,2-b]pyridazin-6-yl)-6-(trifluoromethyl)pyridin-2-yloxy)acetate] | 2610 nM |
| Cc1ccc(-c2cn3nc(-c4ccc(O)nc4)ccc3n2)cc1NC(=O)C(C)(C)C [Example 404, N-(5-(6-(6-hydroxypyridin-3-yl)imidazo[1,2-b]pyridazin-2-yl)-2-methylphenyl)pivalamide] | 873 nM |
| Cc1ccc(-c2cn3nc(-c4cccc(C(=O)O)c4)ccc3n2)cc1NC(=O)C(C)(C)C [compound 528] | 5850 nM |
| Cc1ccc(-c2cn3nc(-c4cccnc4C(F)(F)F)ccc3n2)cc1NC(=O)c1cccc(C=CC(=O)NO)c1 [compound 625, 3-(3-(hydroxyamino)-3-oxoprop-1-en-1-yl)-N-(2-methyl-5-(6-(2-(trifluoromethyl)pyridin-3-yl)imidazo[1,2-b]pyridazin-2-yl)phenyl)benzamide] | 813 nM |
| Cc1ccc(-c2cn3nc(NCc4ccc(CO)cc4)ccc3n2)cc1NC(=O)C(C)(C)C [compound 593] | 2040 nM |

These reach a lower IC50. Values come first.

| IC50 | SMILES |
| --- | --- |
| 599 nM | Cc1ccc(-c2cn3nc(-c4cccc(N)n4)ccc3n2)cc1NC(=O)C(C)(C)C [compound 575, N-(5-(6-(6-aminopyridin-2-yl)imidazo[1,2-b]pyridazin-2-yl)-2-methylphenyl)pivalamide] |
| 427 nM | CCOC(=O)COc1ccc(-c2ccc3nc(-c4ccc(C)c(NC(=O)C(C)(C)C)c4)cn3n2)c(C(F)(F)F)n1 [Example 476, ethyl 2-(5-(2-(4-methyl-3-pivalamidophenyl)imidazo[1,2-b]pyridazin-6-yl)-6-(trifluoromethyl)pyridin-2-yloxy)acetate] |
| 409 nM | Cc1ccnc(F)c1-c1ccc2nc(-c3ccc(C(F)(F)F)c(NC(=O)C(C)(C)C)c3)cn2n1 [Example 342, N-(5-(6-(2-fluoro-4-methylpyridin-3-yl)imidazo[1,2-b]pyridazin-2-yl)-2-(trifluoromethyl)phenyl)pivalamide] |
| 392 nM | Cc1ccc(-c2cn3nc(-c4cccnc4C(F)(F)F)ccc3n2)cc1N(C)C(=O)C(C)(C)C [compound 514, N-methyl-N-(2-methyl-5-(6-(2-(trifluoromethyl)pyridin-3-yl)imidazo[1,2-b]pyridazin-2-yl)phenyl)pivalamide] |
| 370 nM | Cc1ccc(-c2cn3nc(-c4cncc(C(F)(F)F)c4)ccc3n2)cc1NC(=O)C(C)(C)C [compound 536, N-(2-methyl-5-(6-(5-(trifluoromethyl)pyridin-3-yl)imidazo[1,2-b]pyridazin-2-yl)phenyl)pivalamide] |
| 364 nM | CCOC(=O)C=Cc1cccc(-c2ccc3nc(-c4ccc(C)c(NC(=O)C(C)(C)C)c4)cn3n2)c1 [compound 551] |
| 364 nM | Cc1ccc(-c2cn3nc(-c4ccc(C#N)cc4C)ccc3n2)cc1NC(=O)C(C)(C)C [compound 574] |
| 325 nM | COc1ccc(F)c(-c2ccc3nc(-c4ccc(C(F)(F)F)c(NC(=O)C(C)(C)C)c4)cn3n2)c1 [Example 228, N-(5-(6-(2-fluoro-5-methoxyphenyl)imidazo[1,2-b]pyridazin-2-yl)-2-(trifluoromethyl)phenyl)pivalamide] |
| 313 nM | COc1cccc(-c2ccc3nc(-c4ccc(C(F)(F)F)c(NC(=O)C(C)(C)C)c4)cn3n2)c1 [Example 229, N-(5-(6-(3-methoxyphenyl)imidazo[1,2-b]pyridazin-2-yl)-2-(trifluoromethyl)phenyl)pivalamide] |
| 236 nM | Cc1ccc(-c2cn3nc(-c4ccc(O)cc4C(F)(F)F)ccc3n2)cc1NC(=O)C(C)(C)C [Example 409, N-(5-(6-(4-hydroxy-2-(trifluoromethyl)phenyl)imidazo[1,2-b]pyridazin-2-yl)-2-methylphenyl)pivalamide] |
| 230 nM | CC(C)(C)C(=O)Nc1cc(-c2cn3nc(N4CCCC(O)C4)ccc3n2)ccc1C(F)(F)F (stereo not shown) [Example 336, N-(5-(6-(3-hydroxypiperidin-1-yl)imidazo[1,2-b]pyridazin-2-yl)-2-(trifluoromethyl)phenyl)pivalamide] |
| 204 nM | Cc1nc(-c2ccc(-c3ccc4nc(-c5ccc(C)c(NC(=O)C(C)(C)C)c5)cn4n3)cc2)no1 [compound 549] |
| 53 nM | Cc1ccc(-c2cn3nc(-c4cccnc4C(F)(F)F)ccc3n2)cc1NC(=O)C(C)(C)C#N [compound 621, 2-cyano-2-methyl-N-(2-methyl-5-(6-(2-(trifluoromethyl)pyridin-3-yl)imidazo[1,2-b]pyridazin-2-yl)phenyl)propanamide] |
| 49 nM | Cc1ccc(-c2cn3nc(NC(=O)c4ccccn4)ccc3n2)cc1NC(=O)C(C)(C)C [compound 611] |
| 35 nM | Cc1ccc(-c2cn3nc(-c4cccc(F)c4Cl)ccc3n2)cc1NC(=O)C(C)(C)C [compound 619] |
